Laboratory results published in patent US6737383B1, “Herbicidal oxadiazolidines” (priority 1999, dated 2004).

Key:
[1] = tested on: rape; experiment: Test B pre/postemergence rape; type: in vivo, Brassica napus; conditions: for Rape plant response rating: scale of 0 to 10 where 0 is no effect and 10 is complete control
Outline: (§1)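 Response is a visual 0-to-10 score relative to untreated plants, where 0 means no effect and 10 means complete control, taken twelve to sixteen days after application. Treatments went onto soil at planting and onto foliage of 1- to 4-leaf plants, using a surfactant-containing non-phytotoxic solvent.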

[2] = tested on: pigweed; experiment: Test B pre/postemergence pigweed; type: in vivo, Amaranthus retroflexus; conditions: for Redroot pigweed plant response rating: scale of 0 to 10 where 0 is no effect and 10 is complete control
Outline: as §1

[3] = tested on: wheat; experiment: Test B pre/postemergence wheat; type: in vivo, Triticum aestivum; conditions: for Wheat plant response rating: scale of 0 to 10 where 0 is no effect and 10 is complete control
Outline: as §1

[4] = tested on: velvetleaf; experiment: Test B pre/postemergence velvetleaf; type: in vivo, Abutilon theophrasti; conditions: for Velvetleaf plant response rating: scale of 0 to 10 where 0 is no effect and 10 is complete control
Outline: as §1

[5] = tested on: surinam grass; experiment: Test B pre/postemergence surinam grass; type: in vivo, Brachiaria decumbens
Outline: as §1

[6] = tested on: corn; experiment: Test B pre/postemergence corn; type: in vivo, Zea mays; conditions: for Corn plant response rating: scale of 0 to 10 where 0 is no effect and 10 is complete control
Outline: as §1

[7] = tested on: duck salad; experiment: Test B flood test duck salad; type: in vivo, Heteranthera limosa; conditions: Pre-emergence
Outline: (§2)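 Flood test on plants grown to the 2-leaf stage; treated plants kept in greenhouse twelve to sixteen days, then visually rated against controls on a 0 (no effect) to 10 (complete control) scale.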

[8] = tested on: bedstraw; experiment: Test B pre/postemergence bedstraw; type: in vivo, Galium aparine
Outline: as §1

[9] = tested on: wild oat; experiment: Test B pre/postemergence wild oat; type: in vivo, Avena fatua; conditions: for Wild oats plant response rating: scale of 0 to 10 where 0 is no effect and 10 is complete control
Outline: as §1

[10] = tested on: blackgrass; experiment: Test B pre/postemergence blackgrass; type: in vivo, Alopecurus myosuroides
Outline: as §1

[11] = tested on: rice; experiment: Test B flood test rice; type: in vivo, Oryza sativa; conditions: Pre-emergence
Outline: as §2

[12] = tested on: crabgrass; experiment: Test B pre/postemergence crabgrass; type: in vivo, Digitaria sanguinalis; conditions: for Crabgrass plant response rating: scale of 0 to 10 where 0 is no effect and 10 is complete control
Outline: as §1

[13] = tested on: purple nutsedge; experiment: Test B pre/postemergence purple nutsedge; type: in vivo, Cyperus rotundus; conditions: for Nutsedge plant response rating: scale of 0 to 10 where 0 is no effect and 10 is complete control
Outline: as §1

[14] = tested on: smallflower flatsedge; experiment: Test B flood test smallflower flatsedge; type: in vivo, Cyperus difformis; conditions: Pre-emergence
Outline: as §2

[15] = tested on: sugar beet; experiment: Test B pre/postemergence sugar beet; type: in vivo, Beta vulgaris; conditions: for Sugarbeets plant response rating: scale of 0 to 10 where 0 is no effect and 10 is complete control
Outline: as §1

[16] = tested on: soybean; experiment: Test B pre/postemergence soybean; type: in vivo, Glycine max; conditions: for Soybean plant response rating: scale of 0 to 10 where 0 is no effect and 10 is complete control
Outline: as §1

[17] = Postemergence, Rate 125 g/ha, scale 0 to 10, 0 is no effect, 10 is complete control
[18] = Preemergence, Rate 62 g/ha, scale 0 to 10 (0 no effect, 10 complete control)
[19] = Rate 500 g/ha, Postemergence, scale 0 to 10, 0 no effect, 10 complete control
[20] = Preemergence, Rate 250 g/ha, scale of 0 to 10 where 0 is no effect and 10 is complete control
[21] = Preemergence, Rate 500 g/ha, scale of 0 to 10 where 0 is no effect and 10 is complete control
[22] = Rate 62 g/ha, Postemergence, scale of 0 to 10 where 0 is no effect and 10 is complete control
[23] = Rate 250 g/ha, Postemergence, scale of 0 to 10 where 0 is no effect and 10 is complete control
[24] = Rate 62 g/ha, flood test species, visual evaluation after twelve to sixteen days
[25] = Rate 125 g/ha, flood test species, scale 0 to 10 where 0 is no effect and 10 is complete control
[26] = Rate 250 g/ha, flood-test species, scale 0 to 10, 0 is no effect, 10 is complete control
[27] = Rate 500 g/ha, flood test species, scale 0 to 10 (0 no effect, 10 complete control)

With `CC(C)N(C(=O)n1oc(=O)n(C2CCCCCC2)c1=O)c1ccccc1` [Compound 341] the “Plant response rating, Rape” value [1, 17] was 0, the “Plant response rating, Rape” value [1, 18] was 0 and the “Rape plant response rating (0 to 10 scale)” value ([1]; Preemergence, Rate 125 g/ha) was 0. The “Rape plant response rating” value ([1]; Preemergence, Rate 250 g/ha) was 0, the “Rape plant response rating” value ([1]; Preemergence, Rate 500 g/ha) was 0 and the “Rape plant response rating” value ([1]; Rate 62 g/ha, Postemergence) was 0. The “Plant response rating, Rape” value [1, 19] was 2, the “Plant response rating, Redroot pigweed” value [2, 17] was 0 and the “Plant response rating, Redroot pigweed” value [2, 18] was 0. The “Redroot pigweed plant response rating (0 to 10 scale)” value ([2]; Preemergence, Rate 125 g/ha) was 0, the “Redroot pigweed plant response rating” value ([2]; Preemergence, Rate 250 g/ha) was 0 and the “Redroot pigweed plant response rating” value ([2]; Preemergence, Rate 500 g/ha) was 8. The “Redroot pigweed plant response rating” value ([2]; Rate 62 g/ha, Postemergence) was 0, the “Plant response rating, Redroot pigweed” value [2, 19] was 6 and the “Plant response rating, Wheat” value [3, 17] was 0. The “Plant response rating, Wheat” value [3, 18] was 0, the “Wheat plant response rating (0 to 10 scale)” value ([3]; Preemergence, Rate 125 g/ha) was 0 and the “Wheat plant response rating” value ([3]; Preemergence, Rate 250 g/ha) was 0. For the same compound, the “Wheat plant response rating” value ([3]; Preemergence, Rate 500 g/ha) was 0, the “Wheat plant response rating” value ([3]; Rate 62 g/ha, Postemergence) was 0 and the “Plant response rating, Wheat” value [3, 19] was 0. The “Plant response rating, Velvetleaf” value [4, 17] was 0, the “Plant response rating, Velvetleaf” value [4, 18] was 0 and the “Velvetleaf plant response rating (0 to 10 scale)” value ([4]; Preemergence, Rate 125 g/ha) was 0. The “Velvetleaf plant response rating” value ([4]; Preemergence, Rate 250 g/ha) was 0, the “Velvetleaf plant response rating” value ([4]; Preemergence, Rate 500 g/ha) was 2 and the “Velvetleaf plant response rating” value ([4]; Rate 62 g/ha, Postemergence) was 0. The “Plant response rating, Velvetleaf” value [4, 19] was 2, the “Plant response rating, B. signalgrass” value [5, 17] was 0 and the “Plant response rating, B. signalgrass” value [5, 18] was 0. The “B. signalgrass plant response rating (0 to 10 scale, 0 is no effect, 10 is complete control)” value ([5]; Preemergence, Rate 125 g/ha) was 0, the “B. signalgrass plant response rating” value [5, 20] was 0 and the “B. signalgrass plant response rating” value [5, 21] was 0. For the same compound, the “B. signalgrass plant response rating” value [5, 22] was 0, the “Plant response rating, B. signalgrass” value [5, 23] was 0 and the “Plant response rating, B. signalgrass” value [5, 19] was 2. For the same compound, the “Plant response rating, Corn” value [6, 17] was 0, the “Plant response rating, Corn” value [6, 18] was 0 and the “Corn plant response rating (0 to 10 scale)” value ([6]; Preemergence, Rate 125 g/ha) was 0. For the same compound, the “Corn plant response rating” value ([6]; Preemergence, Rate 250 g/ha) was 0, the “Corn plant response rating” value ([6]; Preemergence, Rate 500 g/ha) was 0 and the “Corn plant response rating” value ([6]; Rate 62 g/ha, Postemergence) was 0. For the same compound, the “Plant response rating, Corn” value [6, 19] was 0, the “Plant response rating, Ducksalad (0 to 10 scale, 0 is no effect, 10 is complete control)” value [7, 24] was 0 and the “Ducksalad plant response rating” value [7, 25] was 0. For the same compound, the “Ducksalad plant response rating” value [7, 26] was 0, the “Ducksalad plant response rating” value [7, 27] was 3 and the “Plant response rating, Bedstraw” value [8, 17] was 0. For the same compound, the “Plant response rating, Bedstraw” value [8, 18] was 0, the “Bedstraw plant response rating (0 to 10 scale)” value ([8]; Preemergence, Rate 125 g/ha) was 0 and the “Bedstraw plant response rating” value [8, 21] was 2. For the same compound, the “Bedstraw plant response rating” value [8, 22] was 0, the “Plant response rating, Bedstraw” value [8, 23] was 4 and the “Plant response rating, Bedstraw” value [8, 19] was 8. For the same compound, the “Plant response rating, Wild oats” value [9, 17] was 0, the “Plant response rating, Wild oats” value [9, 18] was 0 and the “Wild oats plant response rating (0 to 10 scale)” value ([9]; Preemergence, Rate 125 g/ha) was 0. For the same compound, the “Wild oats plant response rating” value ([9]; Preemergence, Rate 250 g/ha) was 0, the “Wild oats plant response rating” value ([9]; Preemergence, Rate 500 g/ha) was 2 and the “Wild oats plant response rating” value ([9]; Rate 62 g/ha, Postemergence) was 0. For the same compound, the “Plant response rating, Wild oats” value [9, 19] was 3, the “Plant response rating, Blackgrass” value [10, 17] was 0 and the “Plant response rating, Blackgrass” value [10, 18] was 0. The “Blackgrass plant response rating (0 to 10 scale)” value ([10]; Preemergence, Rate 125 g/ha) was 2, the “Blackgrass plant response rating” value [10, 20] was 6 and the “Blackgrass plant response rating” value [10, 21] was 7. The “Blackgrass plant response rating” value [10, 22] was 0, the “Plant response rating, Blackgrass” value [10, 23] was 2 and the “Plant response rating, Blackgrass” value [10, 19] was 2. For the same compound, the “Plant response rating, Rice (0 to 10 scale, 0 is no effect, 10 is complete control)” value [11, 24] was 0, the “Rice plant response rating” value [11, 25] was 0 and the “Rice plant response rating” value [11, 26] was 0. For the same compound, the “Rice plant response rating” value [11, 27] was 2, the “Plant response rating, Crabgrass” value [12, 17] was 0 and the “Plant response rating, Crabgrass” value [12, 18] was 2. The “Crabgrass plant response rating (0 to 10 scale)” value ([12]; Preemergence, Rate 125 g/ha) was 2, the “Crabgrass plant response rating” value ([12]; Preemergence, Rate 250 g/ha) was 2 and the “Crabgrass plant response rating” value ([12]; Preemergence, Rate 500 g/ha) was 8. The “Crabgrass plant response rating” value ([12]; Rate 62 g/ha, Postemergence) was 0, the “Plant response rating, Crabgrass” value [12, 19] was 2 and the “Plant response rating, Nutsedge” value [13, 17] was 0. For the same compound, the “Plant response rating, Nutsedge” value [13, 18] was 0, the “Nutsedge plant response rating (0 to 10 scale)” value ([13]; Preemergence, Rate 125 g/ha) was 0 and the “Nutsedge plant response rating” value ([13]; Preemergence, Rate 250 g/ha) was 0. The “Nutsedge plant response rating” value ([13]; Preemergence, Rate 500 g/ha) was 0, the “Nutsedge plant response rating” value ([13]; Rate 62 g/ha, Postemergence) was 0 and the “Plant response rating, Nutsedge” value [13, 19] was 0. The “Plant response rating, S. Flatsedge (0 to 10 scale, 0 is no effect, 10 is complete control)” value [14, 24] was 1, the “S. Flatsedge plant response rating” value [14, 25] was 4 and the “S. Flatsedge plant response rating” value [14, 26] was 9. The “S. Flatsedge plant response rating” value [14, 27] was 9, the “Plant response rating, Sugarbeets” value [15, 17] was 0 and the “Plant response rating, Sugarbeets” value [15, 18] was 0. For the same compound, the “Sugarbeets plant response rating (0 to 10 scale)” value ([15]; Preemergence, Rate 125 g/ha) was 0, the “Sugarbeets plant response rating” value ([15]; Preemergence, Rate 250 g/ha) was 0 and the “Sugarbeets plant response rating” value ([15]; Preemergence, Rate 500 g/ha) was 0. The “Sugarbeets plant response rating” value ([15]; Rate 62 g/ha, Postemergence) was 0, the “Plant response rating, Sugarbeets” value [15, 19] was 0 and the “Plant response rating, Soybean” value [16, 17] was 2. The “Plant response rating, Soybean” value [16, 18] was 0, the “Soybean plant response rating (0 to 10 scale)” value ([16]; Preemergence, Rate 125 g/ha) was 0 and the “Soybean plant response rating” value ([16]; Preemergence, Rate 250 g/ha) was 0. The “Soybean plant response rating” value ([16]; Preemergence, Rate 500 g/ha) was 0, the “Soybean plant response rating” value ([16]; Rate 62 g/ha, Postemergence) was 1 and the “Plant response rating, Soybean” value [16, 19] was 3.
